Measurements published in patent US8877802B2 (priority 2005, dated 2014).
Where two headings read alike, the source gives them in different places.

Columns and labels:
[1] = system: DA-depleted DAT-KO (DDD) mice; experiment: Akinesia test (forelimb steps in 30 s) in DDD mice; details: as E7; 1 h after second dose
[2] = system: DA-depleted DAT-KO (DDD) mice; experiment: Grasping test of muscular rigidity in DDD mice; details: as E1; 1 h after second dose
[3] = system: DA-depleted DAT-KO (DDD) mice; experiment: Catalepsy test (horizontal bar) in DDD mice; details: for Catalepsy (sec) 2 h: as E4, 1 h after second dose
[4] = system: DA-depleted DAT-KO (DDD) mice; details: mouse, in vivo
DAT-KO mice [5] = experiment: Neurotoxic regimen of (±)-MDMA, striatal tissue DA and 5-HT 7 d later; details: (±)-MDMA 4 injections of 20 mg/kg IP, every 2 h, DAT-KO mice n=7
WT mice = experiment: Neurotoxic regimen of (±)-MDMA; details: (±)-MDMA 4 injections of 20 mg/kg IP, every 2 h; WT mice n=7
[6] = system: DA-depleted DAT-KO (DDD) mice; experiment: Locomotor activity (forward locomotion, distance traveled) in DDD mice; details: for effect in tests of forward locomotion or akinesia and rigidity: NE- and 5-HT-related drugs, data not shown
DAT-KO mice [7] = experiment: In vivo microdialysis of striatal extracellular DA; details: (+)-MDMA 100 mg/kg IP after αMT; in vivo microdialysis
Protocol: Neurochemical assessments. Striatal tissue contents of DA and frontal cortical tissue levels of NE were assessed using HPLC-EC (high performance liquid chromatography with electrochemical detection) as described. In vivo microdialysis measurements of striatal extracellular DA levels in freely moving mice were performed at least 24 h after implantation of a microdialysis probe as described previously. Dialysate samples were assayed for DA using HPLC-EC.

[8] = system: DA-depleted DAT-KO (DDD) mice; experiment: Ptosis score in DDD mice; details: cumulative dosing, scale 0-4, n=4
6-OH-DA-lesioned rats = 6-OH-DA-lesioned rats [85]; cited from earlier work
MPTP-treated monkeys = MPTP-treated monkeys [64]; cited from earlier work
haloperidol-treated rats = haloperidol-treated rats [84]; cited from earlier work
DD mice = details: [76], cited from earlier work
TA1 receptor = TA1 receptor (Rattus norvegicus, UniProt Q923Y9); details: reported in [42]; cited from earlier work
TA1 receptor, sequence (Q923Y9 whole entry): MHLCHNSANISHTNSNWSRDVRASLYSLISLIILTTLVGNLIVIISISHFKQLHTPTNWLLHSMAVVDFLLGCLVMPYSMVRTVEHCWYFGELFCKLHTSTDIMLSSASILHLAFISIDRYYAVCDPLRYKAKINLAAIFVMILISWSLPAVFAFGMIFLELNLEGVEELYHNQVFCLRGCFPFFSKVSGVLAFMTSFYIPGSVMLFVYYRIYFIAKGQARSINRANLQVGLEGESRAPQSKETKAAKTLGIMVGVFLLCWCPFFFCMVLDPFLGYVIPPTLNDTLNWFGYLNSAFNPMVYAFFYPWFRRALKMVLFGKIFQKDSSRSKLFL

[9] = DDD mice, drug 1 h after αMT 250 mg/kg IP

With CCNC(C)Cc1cccc(C(F)(F)F)c1 (racemic) [(±)-Fenfluramine] the “Akinesia (steps) 2 h” value [1] was 32 ± 6 steps, the “Grasping test (sec) 2 h” value [2] was 8 ± 4 s and the “Catalepsy (sec) 2 h” value [3] was 138 ± 28 s.
For CC(N)Cc1ccc2c(c1)OCO2.Cl (racemic) [(±)-MDA, (±)-3,4-methylenedioxyamphetamine HCl], the “manifestations of akinesia and rigidity” value [4] was “effective in reducing manifestations of akinesia and rigidity”.
With CNC(C)Cc1ccc2c(c1)OCO2.Cl (racemic) [(±)-MDMA, (±)-3,4-methylenedioxymethamphetamine HCl] the “striatal tissue 5-HT” value (DAT-KO mice [5]) was 0.40±0.02 ng/mg tissue, the “striatal tissue DA” value (DAT-KO mice [5]) was 0.58±0.04 ng/mg tissue and the “manifestations of akinesia and rigidity” value [4] was “effective in reducing manifestations of akinesia and rigidity”. The lethality (WT mice) was “lethality of all treated WT mice”.
For CNC(C)Cc1ccc2c(c1)OCO2.Cl (single isomer, unassigned; (+)) [(+)-MDMA, (+)-3,4-methylenedioxymethamphetamine HCl], the “forward locomotion (distance traveled)” value ([6]; mouse, in vivo) was “able to induce significant forward locomotion”, the “potentiation of locomotor-stimulating effect of subthreshold L-DOPA/carbidopa” value ([6]; mouse, in vivo) was “potent synergistic effect” and the forward locomotion ([6]; mouse, in vivo, HCl) was “induced significant forward locomotion”. For the same compound, the “striatal extracellular DA in DDD mice” value (DAT-KO mice [7]) was “did not produce any detectable increase in striatal extracellular DA”.
For CCNC(C)Cc1cccc(C(F)(F)F)c1 (single isomer, unassigned; (-)) [(−)-Fenfluramine], the “Akinesia (steps) 2 h” value [1] was 28 ± 5 steps, the “Grasping test (sec) 2 h” value [2] was 4 ± 1 s and the “Catalepsy (sec) 2 h” value [3] was 104 ± 31 s.
With CC(N)Cc1ccc(Cl)cc1 (centres unmarked) [4-chloro-amphetamine] the “manifestations of akinesia and rigidity” value [4] was “effective in reducing manifestations of akinesia and rigidity”.
For COc1ccc2[nH]cc(CCN(C)C)c2c1 [5-methoxy-N,N-dimethyltryptamine], the “effect in tests of forward locomotion or akinesia and rigidity” value (“effect in tests” for short) ([6]; DDD mice) was “none were effective”.
In the case of Cc1ccc2[nH]cc(CCN(C)C)c2c1 [5-methyl-N,N-dimethyltryptamine], the “effect in tests” value ([6]; DDD mice) is reported as “none were effective”.
For CCN[C@@H](C)Cc1cccc(C(F)(F)F)c1 [(+)-Fenfluramine], the “Akinesia (steps) 2 h” value [1] was 21 ± 3 steps, the “Grasping test (sec) 2 h” value [2] was 9 ± 4 s and the “Catalepsy (sec) 2 h” value [3] was 113 ± 23 s.
For CC(NC(C)(C)C)C(=O)c1cccc(Cl)c1 (centres unmarked) [Bupropion], the “Akinesia (steps) 2 h” value [1] was 29 ± 11 steps, the “Grasping test (sec) 2 h” value [2] was 16 ± 3 s and the “Catalepsy (sec) 2 h” value [3] was 123 ± 28 s.
In the case of C[C@@H](N)Cc1ccccc1 [L-Amphetamine], the “Akinesia (steps) 2 h” value [1] is reported as 29 ± 5 steps, the “Grasping test (sec) 2 h” value [2] is reported as 9 ± 3 s and the “Catalepsy (sec) 2 h” value [3] is reported as 99 ± 36 s.
In the case of N[C@@H](Cc1ccc(O)c(O)c1)C(=O)O [L-DOPA], the “forward locomotion (distance traveled)” value [6, 9] is reported as “effectively restored locomotion”.
In the case of N[C@H](C(=O)O)[C@H](O)c1ccc(O)c(O)c1 [L-DOPS, L-threo-3,4-dihydroxyphenylserine], the “effect in tests” value ([6]; DDD mice) is reported as “none were effective”, the ptosis score ([8]; 1 h after 100 mg/kg IP) is reported as 2.50±0.28 and the ptosis score ([8]; 1 h after 200 mg/kg IP) is reported as 0. The ptosis score ([8]; 1 h after 400 mg/kg IP) was 0.
For CNC(C)Cc1ccc2c(c1)OCO2 (centres unmarked) [MDMA, 3,4-methylenedioxymethamphetamine], the antiakinetic effects (6-OH-DA-lesioned rats) is listed as “antiakinetic effects”, the antiakinetic effects (MPTP-treated monkeys) is listed as “antiakinetic effects” and the anticataleptic effect (haloperidol-treated rats) is listed as “potent anticataleptic effect”.
With C[C@]12N[C@H](Cc3ccccc31)c1ccccc12 [MK-801] the “forward locomotion (distance traveled)” value [6, 9] was “not effective”, the “forward locomotion (distance traveled)” value ([6]; DDD mice, drug 1 h after αMT 250 mg/kg IP, listed as ME-801) was “did not result in a significant increase in forward locomotion” and the “manifestations of akinesia and rigidity” value [4] was “able to reduce rigidity”.
For COc1ccc2[nH]cc(C3=CCNCC3)c2c1 [RU24969], the “effect in tests” value ([6]; DDD mice) was “none were effective”.
For CN1CCc2cccc3c2[C@H]1Cc1ccc(O)c(O)c1-3 [apomorphine], the “forward locomotion (distance traveled)” value [6, 9] was “induced locomotion”.
In the case of NCCc1ccccc1 [beta-phenylethylamine], the “forward locomotion (distance traveled)” value [6, 9] is reported as “did not induce forward locomotion” and the “stereotypic reactions, such as headweaving and sniffing” value ([6]; DDD mice, high doses, with or without inhibition of MAO) is reported as “did promote weak stereotypic reactions”.
In the case of Cn1c(=O)c2c(ncn2C)n(C)c1=O [caffeine], the “forward locomotion (distance traveled)” value ([6]; mouse, in vivo) is reported as “not effective”.
With Clc1cccc(Cl)c1N=C1NCCN1 [clonidine] the “effect in tests” value ([6]; DDD mice) was “none were effective”.
In the case of C[C@H](N)Cc1ccccc1 [d-amphetamine], the “locomotor activation in DD mice” value (DD mice; 5 mg/kg, first treatment) is listed as “induced potent locomotor activation”, the “locomotor activation in DD mice” value (DD mice; second treatment 2 h later, same dose) is listed as “failed to induce locomotion” and the “effects on akinesia and rigidity after pretreatment with D1 and D2 DA antagonists” value [4] is listed as “did not prevent the effects”. For the same compound, the “manifestations of akinesia and rigidity” value [4] was “effective in reducing manifestations of akinesia and rigidity”.
For CN[C@@H](C)Cc1ccccc1 [d-methamphetamine], the “manifestations of akinesia and rigidity” value [4] was “effective in reducing manifestations of akinesia and rigidity”.
With C#CCN(C)[C@H](C)Cc1ccccc1 [deprenyl] the “potentiation of locomotor-stimulating effect of subthreshold L-DOPA/carbidopa” value ([6]; DDD mice, L-DOPA/carbidopa 10/10 mg/kg IP 15 min after drug, distance traveled for 2 h) was “failed to potentiate”.
With CNCCCN1c2ccccc2CCc2ccccc21 [desipramine] the “effect in tests” value ([6]; DDD mice) was “none were effective”.
In the case of CNCCC(Oc1ccc(C(F)(F)F)cc1)c1ccccc1 (centres unmarked) [fluoxetine], the “effect in tests” value ([6]; DDD mice) is reported as “none were effective”.
In the case of CN1Cc2c(N)cccc2C(c2ccccc2)C1 (centres unmarked) [nomifensine], the “forward locomotion (distance traveled)” value [6, 9] is listed as “not effective”, the “activity at TA1 receptor” value (TA1 receptor) is listed as “can also potently activate TA1 receptor” and the reversing catalepsy ([3]; DDD mice, cumulative treatment with 10 and 30 mg/kg IP) is listed as “not effective”. The “manifestations of akinesia and rigidity” value [4] was “significantly reduced akinesia and rigidity”.
For CCCN1C[C@H](CSC)C[C@@H]2c3cccc4[nH]cc(c34)C[C@H]21 [pergolide], the “forward locomotion (distance traveled)” value [6, 9] was “induced locomotion”.
For CC(C)(N)Cc1ccccc1 [phentermine], the “effects on akinesia and rigidity after pretreatment with D1 and D2 DA antagonists” value [4] was “did not prevent the effects” and the “manifestations of akinesia and rigidity” value [4] was “effective in reducing manifestations of akinesia and rigidity”.
